Here are results for eleven compounds from patent US4637999A, “Substituted cephalosporins as anti-inflammatory and antidegenerative agents” (Merck & Co., Inc., priority 1983, dated 1987).

One test addresses T1, Human Polymorphonuclear Leukocyte Elastase (Homo sapiens, UniProt P08246).
T1 sequence (P08246 30-267): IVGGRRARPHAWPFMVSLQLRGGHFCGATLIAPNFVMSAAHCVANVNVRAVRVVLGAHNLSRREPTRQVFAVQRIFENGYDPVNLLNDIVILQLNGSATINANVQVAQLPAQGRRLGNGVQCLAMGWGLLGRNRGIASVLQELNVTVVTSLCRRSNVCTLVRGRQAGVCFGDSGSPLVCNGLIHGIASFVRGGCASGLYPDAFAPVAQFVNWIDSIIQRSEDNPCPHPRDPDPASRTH
The experiment in a line: biochemical.
Conditions: not given
In turn, `COC(=O)C1=C(COC(C)=O)CSC2C(OC(=O)Cc3ccccc3)C(=O)N12` (centres unmarked) [R1=OCOCH2 .phi., B=OCH3] gave an IC50 of 9.87 µM.
Consider `CC(=O)OCC1=C(C(=O)OC(C)(C)C)N2C(=O)C(OC(=O)Cc3ccccc3)C2SC1` (centres unmarked) [R1=OCOCH2 .phi., B=OtBu], for which the IC50 was 6.7 µM.

Still in this test, the particulars now being: 50% inhibition of enzyme activity 2 minutes after zero time; crude PMN extract, 0.2 mM Boc-AAPAN, pH 7.5, 410 mμ; read-out: ED50 (the source's name) (converted).
For `COC(=O)CCCOC(=O)C1=C(COC(C)=O)CSC2C(OC)C(=O)N12` (centres unmarked) [R1=OCH3, B=O(CH2)3 COOCH3], the IC50 was 1.29 µM.
Same read-out and setting: as for `COC(=O)c1ccc(COC(=O)C2=C(COC(C)=O)CSC3C(OC)C(=O)N23)cc1` (centres unmarked) [R1=OCH3, B=OCH2 .phi.(p-COOCH3)], the figure is 0.689 µM; as for `COC1C(=O)N2C(C(=O)OCC=C(C)C)=C(COC(C)=O)CSC12` (centres unmarked) [R1=OCH3, B=OCH2 CHC(CH3)2], 2.81 µM.
For the compound `CCOC(=O)COC(=O)C1=C(COC(C)=O)CSC2C(OC)C(=O)N12` (stereo not drawn) [R1=OCH3, B=OCH2 COOC2 H5, Ethoxycarbonylmethyl 3-acetyloxymethyl-7α-methoxy-8-oxo-5-thia-1-azabicyclo[4.2.0]oct-2-ene-2-carboxylate], the IC50 was 1.07 µM.
Take `COC(=O)C1=C(COC(C)=O)CSC2C(OC)C(=O)N12` (centres unmarked) [R1=OCH3, B=OCH3]: the IC50 is 8.3 µM.
Turning to `CO[C@H]1C(=O)N2C(C(=O)OC(C)(C)C)=C(COC(C)=O)CS[C@H]12` [R1=OCH3, B=OtBu, t-Butyl 3-acetyloxymethyl-7α-methoxy-8-oxo-5-thia-1-azabicyclo(4.2.0)oct-2-ene-2-carboxylate], the IC50 was 10.2 µM.
The same measure, in the same setting: as for `CC(=O)OCC1=C(C(=O)OCc2ccccc2)N2C(=O)C(OC=O)C2SC1` (centres unmarked) [R1=OCHO, B=OCH2 .phi.], the figure is 5.11 µM; as for `COC(=O)C1=C(COC(C)=O)CSC2C(OC=O)C(=O)N12` (centres unmarked) [R1=OCHO, B=OCH3], 9.51 µM; as for `COC(=O)C1=C(COC(C)=O)CSC2C(OC(=O)c3ccccc3)C(=O)N12` (centres unmarked) [R1=OCO.phi., B=OCH3], 12.8 µM.
